# pIC50: −log10 of the molar value. Like-named read-outs stand apart in the source and are kept apart here.
# Target: T1, glucan synthase (GS) (Candida albicans, UniProt O13428)
# T1 construct: Extraction of GS activity from membranes was performed at a protein concentration of 5 mg/mL in extraction buffer; endogenous in cells; host or cells: Candida albicans MY1055 (membrane fraction, detergent extract, product entrapment)
# Experiment: Glucan synthase inhibition (polymerization assay, 96-well, 3H-UDPG incorporation)
# Format: biochemical
# Details: for IC50: glucan synthase prepared from Candida albicans MY1055, 60 min incubation at 22°C, read-out: Candida Albicans GS IC50 (ng/mL) (converted)
# Experimental: The in vitro evaluation of glucan synthase inhibitory activity of compounds was measured in a polymerization assay in 96-well format. Each well contained 100 µL of ^3H-UDPG at 0.5 mM (6000 to 8000 dpm/nmol), 50 mM HEPES pH 7.5 (Sigma), 10% w/v glycerol (Sigma), 1.5 mg/mL bovine serum albumin (Sigma A 9647. Lot 44H0190), 25 mM KF (Fisher), 1 mM EDTA (Gibco ULTRAPURE), 25 µM GTP-γ-S, enzyme sufficient to give 3 to 6 nmoles incorporation during the 60 min incubation at 22°C, and test compound added from wells in 3-fold serial dilutions in 100% DMSO (1 µL/well). The reaction was stopped by the addition of 100 µL of 20% trichloroacetic acid. Plates were chilled for a minimum of 10 min, and precipitated glucan collected by filtration on GF/C plates (Packard UNIFILTER®-96), washed with 5 cycles of water (about 1 mL/well each cycle) using a Packard FILTERMATE HARVESTER. 40 µL/well scintillation fluid (Packard ULTIMA GOLD TM-XR) was added and the sealed plates counted in a WALLAC BETA counter in top-counting mode at an efficiency of approximately 40%.
# Stock solutions were stored at 10 mg/mL in DMSO at -20°C. For each new enzyme preparation, the initial titration performed started at 1 mg/mL, which was prepared by making a 10-fold dilution in DMSO (5 µL to 50 µL). 40 µL of this stock was placed in column 12 of a round-bottomed 96-well microtiter plate. 40 µL DMSO was added to columns 1 to 11 in the same row and ten 3-fold serial dilutions performed, by transferring 20 µL from column 12 to column 11 etc., with 4 mixings before each transfer. No test compound was transferred to from column 2 to column 1. Duplicate aliquots of 1 µL of all 12 dilutions were then transferred to the side walls of a 96-well Bioblock 1.1 mL plate (Fisher brand) to create two rows.
# Graphs of the primary data were created in PRISM software (the average of two determinations) using PRISM's curve fitting program (sigmoidal dose response non-linear regression). The amount of compound required to inhibit glucan synthase activity by 50% in this assay (IC50 - ng/mL) was calculated.
# Routine analysis was performed with glucan synthase (GS) prepared from Candida albicans MY1055 by the following procedure: MY1055 was grown in 10 liters YPD medium (10 g yeast extract, 20 g tryptone, 20 g glucose per liter) with vigorous shaking at 30°C, to early stationary phase. Cells were harvested by centrifugation, the pellet was washed and frozen at -70°C until breakage. Thawed pellets were shaken with an equal volume of breakage buffer (50 mM HEPES pH 7.4, 10% glycerol, 1 mM EDTA, 1 mM PMSF, 1mM DTT) and 4 times their weight of 0.5 mm acid washed glass beads for 2 hours at 4°C. Extent of breakage was assessed visually at 40x magnification. After low speed centrifugation to remove cell debris, the supernatant was centrifuged at 100,000 x g for 60 min. to separate membranes plus ribosomes from cytoplasmic components. Membranes were further washed two additional times with breakage buffer using the same centrifugation conditions and finally suspended in breakage buffer at 25 to 30 mg/mL protein (Biorad) for storage at -70°C. Extraction of GS activity from membranes was performed at a protein concentration of 5 mg/mL in extraction buffer (50mM NaPO4 pH 7.5, 0.1 M KCl, 0.1M Na citrate, 20% glycerol, 5 µM GTP-γ-S, 1mM DTT, 1 mM PMSF, 3 µg/mL pepstatin) plus 0.25% W1 by gentle mixing at 4°C for 60 min, followed by centrifugation at 100,000 x g for 60 min. After centrifugation, clear supernatant was removed from a pellet consisting of a hard layer usually with small amounts of gelatinous unextracted membranes above it.
# Trapping was initiated immediately by 5-fold dilution in trapping buffer (50 mM HEPES pH 7.5, 10 mM KF, 1 mM EDTA, 2 mg/mL BSA) plus 2.5 mM UDPG and 10µM GTP-γ-S. After incubation at 25°C for 60 to 90 minutes, glucan was harvested by low speed centrifugation (3,000 x g, 10 min). […]
# T1 sequence (O13428 1-1897): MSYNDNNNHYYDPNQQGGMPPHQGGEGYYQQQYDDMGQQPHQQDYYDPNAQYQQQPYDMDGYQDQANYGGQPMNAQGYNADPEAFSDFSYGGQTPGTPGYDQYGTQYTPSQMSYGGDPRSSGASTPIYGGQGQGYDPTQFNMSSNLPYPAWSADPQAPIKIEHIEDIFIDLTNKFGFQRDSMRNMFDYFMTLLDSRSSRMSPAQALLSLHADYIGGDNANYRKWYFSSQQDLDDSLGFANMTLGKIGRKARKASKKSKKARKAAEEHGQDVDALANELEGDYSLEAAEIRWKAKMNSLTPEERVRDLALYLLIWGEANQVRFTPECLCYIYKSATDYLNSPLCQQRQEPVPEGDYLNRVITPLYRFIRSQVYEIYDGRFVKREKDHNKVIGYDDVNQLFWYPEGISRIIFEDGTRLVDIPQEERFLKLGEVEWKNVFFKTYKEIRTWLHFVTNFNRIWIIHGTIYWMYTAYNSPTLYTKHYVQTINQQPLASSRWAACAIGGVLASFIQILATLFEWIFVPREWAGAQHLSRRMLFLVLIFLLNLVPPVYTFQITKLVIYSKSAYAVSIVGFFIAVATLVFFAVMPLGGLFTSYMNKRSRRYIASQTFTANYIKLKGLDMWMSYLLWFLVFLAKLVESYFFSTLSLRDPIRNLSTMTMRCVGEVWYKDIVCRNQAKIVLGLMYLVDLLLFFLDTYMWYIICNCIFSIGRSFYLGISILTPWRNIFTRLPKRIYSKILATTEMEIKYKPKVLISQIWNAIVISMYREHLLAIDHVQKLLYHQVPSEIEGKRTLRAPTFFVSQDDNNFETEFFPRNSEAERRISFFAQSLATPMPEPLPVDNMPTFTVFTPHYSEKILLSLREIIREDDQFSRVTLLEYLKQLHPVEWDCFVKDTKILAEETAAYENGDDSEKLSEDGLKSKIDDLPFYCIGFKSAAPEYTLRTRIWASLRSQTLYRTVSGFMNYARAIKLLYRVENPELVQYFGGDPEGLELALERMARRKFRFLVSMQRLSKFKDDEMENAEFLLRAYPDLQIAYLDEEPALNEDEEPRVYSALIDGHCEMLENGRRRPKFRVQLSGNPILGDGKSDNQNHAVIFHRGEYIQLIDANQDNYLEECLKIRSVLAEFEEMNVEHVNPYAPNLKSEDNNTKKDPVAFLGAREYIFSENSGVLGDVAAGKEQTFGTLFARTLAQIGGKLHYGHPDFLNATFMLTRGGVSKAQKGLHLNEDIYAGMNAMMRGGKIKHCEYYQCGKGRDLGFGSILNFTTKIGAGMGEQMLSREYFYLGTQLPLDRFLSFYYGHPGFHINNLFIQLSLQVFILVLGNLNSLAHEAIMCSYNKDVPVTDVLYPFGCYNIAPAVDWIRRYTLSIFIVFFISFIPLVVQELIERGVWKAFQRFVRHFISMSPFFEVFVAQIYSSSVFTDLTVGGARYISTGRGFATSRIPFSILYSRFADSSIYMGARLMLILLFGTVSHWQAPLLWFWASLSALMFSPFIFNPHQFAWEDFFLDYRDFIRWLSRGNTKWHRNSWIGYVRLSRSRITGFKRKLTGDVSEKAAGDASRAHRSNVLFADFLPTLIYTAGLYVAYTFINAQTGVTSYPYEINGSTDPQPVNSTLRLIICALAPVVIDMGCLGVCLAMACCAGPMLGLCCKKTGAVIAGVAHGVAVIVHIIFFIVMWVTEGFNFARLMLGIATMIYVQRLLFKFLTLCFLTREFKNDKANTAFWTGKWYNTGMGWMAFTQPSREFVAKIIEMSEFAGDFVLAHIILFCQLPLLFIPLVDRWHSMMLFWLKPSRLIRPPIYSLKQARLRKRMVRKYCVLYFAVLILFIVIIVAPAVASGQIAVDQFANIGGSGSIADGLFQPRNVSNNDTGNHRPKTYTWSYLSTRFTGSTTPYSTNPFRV
# T1 sequence (O42825 1-195 partner limits assumed): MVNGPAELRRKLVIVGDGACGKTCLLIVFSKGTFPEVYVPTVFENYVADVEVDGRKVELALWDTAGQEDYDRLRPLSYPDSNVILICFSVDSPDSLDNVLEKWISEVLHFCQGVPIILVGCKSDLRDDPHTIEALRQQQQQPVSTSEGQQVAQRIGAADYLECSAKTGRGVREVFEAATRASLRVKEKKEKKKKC
SMILES,IC50,pIC50
"CNC(=O)c1ncnn1[C@@H]1C[C@@]23COC[C@](C)([C@@H]2CC[C@H]2C3=CC(=O)[C@@]3(C)[C@H](C(=O)O)[C@@](C)([C@H](C)C(C)C)CC[C@]23C)[C@H]1OC[C@](C)(NC)C(C)C [Example 40, (1S,4aR,6aS,7R,8R,10aR,10bR,12aR,14R,15R)-15-[[(2R)-2,3-dimethyl-2-(methylamino)butyl]oxy]-8-[(1R)-1,2-dimethylpropyl]-14-[5-[(methylamino)carbonyl]-1H-1,2,4-triazol-1-yl]-1,6,6a,7,8,9,10,10a,10b,11,12,12a-dodecahydro-1,6a,8,10a-tetramethyl-6-oxo-4H-1,4a-propano-2H-phenanthro[1,2-c]pyran-7-carboxylic acid]",24.9 nM,
"CCN[C@@](C)(CO[C@H]1[C@H](n2ncnc2C(N)=O)C[C@@]23COC[C@]1(C)[C@@H]2CC[C@H]1C3=CC[C@@]2(C)[C@H](C(=O)O)[C@@](C)([C@H](C)C(C)C)CC[C@]12C)C(C)C [Example 43, (1S,4aR,6aS,7R,8R,10aR,10bR,12aR,14R,15R)-14-[5-(aminocarbonyl)-1H-1,2,4-triazol-1-yl]-8-[(1R)-1,2-dimethylpropyl]-15-[[(2R)-2-(ethylamino)-2,3-dimethylbutyl]oxy]-1,6,6a,7,8,9,10,10a,10b,11,12,12a-dodecahydro-1,6a,8,10a-tetramethyl-4H-1,4a-propano-2H-phenanthro[1,2-c]pyran-7-carboxylic acid]",15.5 nM,
"CNC1(CO[C@H]2[C@H](n3ncnc3C(N)=O)C[C@@]34COC[C@]2(C)[C@@H]3CC[C@H]2C4=CC[C@@]3(C)[C@H](C(=O)O)[C@@](C)([C@H](C)C(C)C)CC[C@]23C)CCOCC1 [Example 46, (1S,4aR,6aS,7R,8R,10aR,10bR,12aR,14R,15R)-14-[5-(aminocarbonyl)-1H-1,2,4-triazol-1-yl]-8-[(1R)-1,2-dimethylpropyl]-15-[[tetrahydro-4-(methylamino)-2H-pyran-4-yl]methoxy]-1,6,6a,7,8,9,10,10a,10b,11,12,12a-dodecahydro-1,6a,8,10a-tetramethyl-4H-1,4a-propano-2H-phenanthro[1,2-c]pyran-7-carboxylic acid]",8.45 nM,
"CC(C)[C@@H](C)[C@@]1(C)CC[C@]2(C)[C@H]3CC[C@@H]4[C@@]5(COC[C@@]4(C)[C@@H](OC[C@](C)(N)C(C)C)[C@H](n4ncnc4C(=O)N(C)C)C5)C3=CC[C@@]2(C)[C@@H]1C(=O)O [Example 50, (1S,4aR,6aS,7R,8R,10aR,10bR,12aR,14R,15R)-15-[[(2R)-2-amino-2,3-dimethylbutyl]oxy]-14-[5-[(dimethylamino)carbonyl]-1H-1,2,4-triazol-1-yl]-8-[(1R)-1,2-dimethylpropyl]-1,6,6a,7,8,9,10,10a,10b,11,12,12a-dodecahydro-1,6a,8,10a-tetramethyl-4H-1,4a-propano-2H-phenanthro[1,2-c]pyran-7-carboxylic acid]",12.7 nM,
"CCCN[C@@](C)(CO[C@H]1[C@H](n2ncnc2C(=O)NC)C[C@@]23COC[C@]1(C)[C@@H]2CC[C@H]1C3=CC[C@@]2(C)[C@H](C(=O)O)[C@@](C)([C@H](C)C(C)C)CC[C@]12C)C(C)C [Example 53, (1S,4aR,6aS,7R,8R,10aR,10bR,12aR,14R,15R)-8-[(1R)-1,2-dimethylpropyl]-15-[[(2R)-2,3-dimethyl-2-(propylamino)butyl]oxy]-14-[5-[(methylamino)carbonyl]-1H-1,2,4-triazol-1-yl]-1,6,6a,7,8,9,10,10a,10b,11,12,12a-dodecahydro-1,6a,8,10a-tetramethyl-4H-1,4a-propano-2H-phenanthro[1,2-c]pyran-7-carboxylic acid]",42 nM,
"CC(C)NC(=O)c1ncnn1[C@@H]1C[C@@]23COC[C@](C)([C@@H]2CC[C@H]2C3=CC[C@@]3(C)[C@H](C(=O)O)[C@@](C)([C@H](C)C(C)C)CC[C@]23C)[C@H]1OC[C@](C)(N)C(C)(C)C [Example 93, (1S,4aR,6aS,7R,8R,10aR,10bR,12aR,14R,15R)-15-[[(2R)-2-amino-2,3,3-trimethylbutyl]oxy]-8-[(1R)-1,2-dimethylpropyl]-14-[5-[[(1-methylethyl)amino]carbonyl]-1H-1,2,4-triazol-1-yl]-1,6,6a,7,8,9,10,10a,10b,11,12,12a-dodecahydro-1,6a,8,10a-tetramethyl-4H-1,4a-propano-2H-phenanthro[1,2-c]pyran-7-carboxylic acid]",20.3 nM,
"CCC(N)(CC)CO[C@H]1[C@H](n2ncnc2C(=O)NC)C[C@@]23COC[C@]1(C)[C@@H]2CC[C@H]1C3=CC[C@@]2(C)[C@H](C(=O)O)[C@@](C)([C@H](C)C(C)C)CC[C@]12C [Example 101, (1S,4aR,6aS,7R,8R,10aR,10bR,12aR,14R,15R)-15-(2-amino-2-ethylbutoxy)-8-[(1R)-1,2-dimethylpropyl]-14-[5-[(methylamino)carbonyl]-1H-1,2,4-triazol-1-yl]-1,6,6a,7,8,9,10,10a,10b,11,12,12a-dodecahydro-1,6a,8,10a-tetramethyl-4H-1,4a-propano-2H-phenanthro[1,2-c]pyran-7-carboxylic acid]",18.7 nM,
"CC(C)[C@@H](C)[C@@]1(C)CC[C@]2(C)[C@H]3CC[C@@H]4[C@@]5(COC[C@@]4(C)[C@@H](OC[C@](C)(N)C(C)(C)C)[C@H](n4ncnc4-c4ccncc4)C5)C3=CC[C@@]2(C)[C@@H]1C(=O)O [Example 173, (1S,4aR,6aS,7R,8R,10aR,10bR,12aR,14R,15R)-15-[[(2R)-2-amino-2,3,3-trimethylbutyl]oxy]-8-[(1R)-1,2-dimethylpropyl]-14-[5-(4-pyridinyl)-1H-1,2,4-triazol-1-yl]-1,6,6a,7,8,9,10,10a,10b,11,12,12a-dodecahydro-1,6a,8,10a-tetramethyl-4H-1,4a-propano-2H-phenanthro[1,2-c]pyran-7-carboxylic acid]",,9.09
"CN[C@@](C)(CO[C@H]1[C@H](n2ncnc2-c2ccncc2)C[C@@]23COC[C@]1(C)[C@@H]2CC[C@H]1C3=CC[C@@]2(C)[C@H](C(=O)O)[C@@](C)([C@H](C)C(C)C)CC[C@]12C)C(C)(C)C [Example 174, (1S,4aR,6aS,7R,8R,10aR,10bR,12aR,14R,15R)-8-[(1R)-1,2-dimethylpropyl]-14-[5-(4-pyridinyl)-1H-1,2,4-triazol-1-yl]-15-[[(2R)-2,3,3-trimethyl-2-(methylamino)butyl]oxy]-1,6,6a,7,8,9,10,10a,10b,11,12,12a-dodecahydro-1,6a,8,10a-tetramethyl-4H-1,4a-propano-2H-phenanthro[1,2-c]pyran-7-carboxylic acid]",2.69 nM,
"CNC1(CO[C@H]2[C@H](n3ncnc3-c3ccncc3)C[C@@]34COC[C@]2(C)[C@@H]3CC[C@H]2C4=CC[C@@]3(C)[C@H](C(=O)O)[C@@](C)([C@H](C)C(C)C)CC[C@]23C)CCOCC1 [Example 181, (1S,4aR,6aS,7R,8R,10aR,10bR,12aR,14R,15R)-8-[(1R)-1,2-dimethylpropyl]-14-[5-(4-pyridinyl)-1H-1,2,4-triazol-1-yl]-15-[[tetrahydro-4-(methylamino)-2H-pyran-4-yl]methoxy]-1,6,6a,7,8,9,10,10a,10b,11,12,12a-dodecahydro-1,6a,8,10a-tetramethyl-4H-1,4a-propano-2H-phenanthro[1,2-c]pyran-7-carboxylic acid]",10.8 nM,
